Molecules are shown by their SMILES.

The record followed here is patent publication US20250101052A1, “COMPOUND FOR EGFR KINASE INHIBITOR, COMPOSITION, AND USE THEREOF” (INNOVATION INSTITUTE FOR ARTIFICIAL INTELLIGENCE IN …, priority 2021, published 2025).

The target in the test is EGFR^L858R/T790M/C797S kinase (Homo sapiens (Human), UniProt P00533, C797S/L858R/T790M). Kind of test: EGFR^L858R/T790M/C797S kinase inhibitory activity experiment. It is filed as biochemical. The note with it: in vitro. As to the method: EGFRL^858R/T790M/C797S kinase inhibitory activity experiment: The compounds of the present invention have excellent in-vitro inhibitory activity against EGFR^L858R/T790M/C797S kinase
Chain of EGFR^L858R/T790M/C797S kinase (P00533 25-1210 T790M/C797S/L858R): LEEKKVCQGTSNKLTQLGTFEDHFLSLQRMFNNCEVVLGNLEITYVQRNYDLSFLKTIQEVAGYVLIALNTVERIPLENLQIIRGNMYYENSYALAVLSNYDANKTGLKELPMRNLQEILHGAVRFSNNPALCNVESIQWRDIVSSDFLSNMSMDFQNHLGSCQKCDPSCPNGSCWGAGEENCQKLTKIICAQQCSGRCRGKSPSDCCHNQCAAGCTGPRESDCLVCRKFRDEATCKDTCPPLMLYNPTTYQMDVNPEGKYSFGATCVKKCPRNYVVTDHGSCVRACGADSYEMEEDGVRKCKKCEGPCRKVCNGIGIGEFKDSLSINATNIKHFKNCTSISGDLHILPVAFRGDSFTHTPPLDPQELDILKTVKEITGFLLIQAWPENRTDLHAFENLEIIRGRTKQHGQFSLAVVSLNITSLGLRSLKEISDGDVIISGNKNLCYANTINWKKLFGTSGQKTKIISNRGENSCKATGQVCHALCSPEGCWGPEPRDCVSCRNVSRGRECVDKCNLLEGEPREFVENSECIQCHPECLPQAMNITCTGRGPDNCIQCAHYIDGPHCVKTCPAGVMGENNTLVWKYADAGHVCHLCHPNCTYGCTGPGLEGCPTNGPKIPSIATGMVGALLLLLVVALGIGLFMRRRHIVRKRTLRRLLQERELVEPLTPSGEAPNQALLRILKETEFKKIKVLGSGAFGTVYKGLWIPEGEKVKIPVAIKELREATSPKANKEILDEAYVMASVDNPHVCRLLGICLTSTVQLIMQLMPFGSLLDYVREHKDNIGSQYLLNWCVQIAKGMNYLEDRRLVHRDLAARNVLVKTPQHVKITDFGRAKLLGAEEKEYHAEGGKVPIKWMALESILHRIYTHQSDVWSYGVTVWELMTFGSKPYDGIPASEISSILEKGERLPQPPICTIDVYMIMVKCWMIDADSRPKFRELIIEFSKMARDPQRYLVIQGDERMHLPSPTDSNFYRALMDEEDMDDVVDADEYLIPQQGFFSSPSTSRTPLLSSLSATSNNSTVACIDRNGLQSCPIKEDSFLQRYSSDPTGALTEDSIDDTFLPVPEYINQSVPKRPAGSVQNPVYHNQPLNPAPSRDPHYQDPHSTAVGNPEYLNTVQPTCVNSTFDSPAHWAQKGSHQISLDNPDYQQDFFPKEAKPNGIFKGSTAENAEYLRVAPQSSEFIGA
• Centrifuge (manufacturer: Eppendorf, model: 5430) • Microplate reader (manufacturer: Perkin Elmer, model: Caliper EZ ReaderII) • Echo 550 (manufacturer: Labcyte, model: Echo 550) • Experimental Method • Compound preparation: • A 10 mM storage solution was prepared.
(1) 1×Kinase buffer was prepared.
(2) Preparation of concentration gradient of compound: The tested compound has a test concentration starting from 1 μM, diluted 10 times, with 10 concentrations, and subjected to single-well or multi-well detection. The compound was diluted to a 100% DMSO solution with a final concentration of 100 times in a 384 source plate. […] of the compound at a final concentration of 100 times was transferred to the target plate 384-well-plate using the pipette Echo 550.
(3) A kinase solution with a final concentration of 2.5 times was prepared using 1× Kinase buffer.
(4) 10 μL of the kinase solution with the final concentration of 2.5 times was added to a compound well and a positive control well, respectively; 10 μL of 1×Kinase buffer was added to a negative control well.
(5) Centrifugation was conducted at 1000 rpm for 30 seconds, and the reaction plate was shaken and mixed well, and incubated at a room temperature for 10 minutes.
(6) A mixed solution of ATP with a final concentration of 5/3 times and Kinase substrate 22 was prepared using 1×Kinase buffer.
(7) A mixed solution of 15 μL of ATP with a final concentration of 5/3 times and a substrate was added for initial reaction.
(8) The 384-well-plate was centrifuged at 1000 rpm for 30 seconds, shaken and mixed well, and incubated at a room temperature for 60 minutes.
(9) 30 μL of a termination detection solution was added to stop the kinase reaction. Centrifugation was conducted at 1000 rpm for 30 seconds. Shaking and mixing well were conducted.
(10) The conversion rate was read using Caliper EZ Reader.
where Conversion %_sample is the conversion rate reading of the sample; Conversion %_min: the average value of negative control wells, representing the conversion rate reading of wells without enzyme activity; Conversion %_max: the average value of positive control wells, representing the conversion rate reading of wells without compound inhibition; % Inhibition represents the inhibition rate.
Fitting of Dose-Response Curve
Using the log value of concentration as the X-axis and the percentage inhibition rate as the Y-axis, the dose-response curve was fitted using the log(inhibitor) vs. response —Variable slope of the analysis software GraphPad Prism 5 to obtain the IC50 value of each compound on enzyme activity.
A word on the IC50: it is the point on the concentration scale where inhibition reaches its midpoint. Take `COc1cc(N2CCC3(CC2)CC(N(C)C)C3)ccc1Nc1ncc(Cl)c(Nc2cc(C)c(C)cc2P(C)(C)=O)n1` [Compound 1, (6-((5-Chloro-2-((4-(2-(dimethylamino)-7-azaspiro[3.5]nonan-7-yl)-2-methoxyphenyl)amino)pyrimidin-4-yl)amino)-3,4-dimethylphenyl)dimethylphosphine oxide]: half-maximal inhibition (IC50) was put at 27 nM. That is a double-digit nanomolar value.

`CCc1cc(Nc2ncc(Cl)c(Nc3cc(C)c(C)cc3P(C)(C)=O)n2)c(OC)cc1N1CC2(CCN(CC(F)F)CC2)C1` [Compound 45] yielded a concentration for half-maximal inhibition (IC50) of 0.74 nM.

For the compound `CCc1cc(Nc2ncc(Cl)c(Nc3ccc(C)c(C)c3P(C)(C)=O)n2)c(OC)cc1N1CCC2(CC1)CC(N1CC(C#N)C1)C2` [Compound 49, 1-(7-(4-((5-chloro-4-((2-(dimethylphosphoryl)-3,4-dimethylphenyl)amino)pyrimidin-2-yl)amino)-2-ethyl-5-methoxyphenyl)-7-azaspiro[3.5]nonan-2-yl)azetidine-3-carbonitrile], the IC50 came out at 8.23 nM.

With `CCc1cc(Nc2ncc(Cl)c(Nc3cc(C)c(C)cc3P(C)(C)=O)n2)c(OC)cc1N1CCC(N2CC(N(C)C)C2)CC1` [Compound 15, (2-((5-chloro-2-((4-(4-(3-(dimethylamino)azetidin-1-yl)piperidine-1-yl)-5-ethyl-2-methoxyphenyl)amino)pyrimidin-4-yl)amino)-4,5-dimethylphenyl)dimethylphosphine oxide], half-maximal inhibition (IC50) required 3.8 nM.

In turn, `CCc1cc(Nc2ncc(Cl)c(Nc3cc(Cl)c(Cl)cc3P(C)(C)=O)n2)c(OC)cc1N1CC2(CCC(CC#N)CC2)C1` [Compound 39, 2-(2-(4-((5-chloro-4-((4,5-dichloro-2-(dimethylphosphoryl)phenyl)amino)pyrimidin-2-yl)amino)-2-ethyl-5-methoxyphenyl)-2-azaspiro[3.5]nonan-7-yl)acetonitrile] had an IC50 of 12.1 nM.

Turning to `CCc1cc(Nc2ncc(Cl)c(Nc3ccc(C)c(C)c3P(C)(C)=O)n2)c(OC)cc1N1CC2(CCN(CC3CC3)CC2)C1` [Compound 26], the IC50 was found to be 0.74 nM.

`CCN1CCC2(CC1)CN(c1cc(OC)c(Nc3ncc(Cl)c(Nc4ccc(C)c(C)c4P(C)(C)=O)n3)cc1C)C2` [Compound 33] came in with an IC50 of 0.73 nM.

`CCc1cc(Nc2ncc(Cl)c(Nc3ccc(C)c(C)c3P(C)(C)=O)n2)c(OC)cc1N1CCC(N2CC3CC(C2)N3C)CC1` [Compound 53, (6-((5-Chloro-2-((5-ethyl-2-methoxy-4-(4-(6-methyl-3,6-diazadicyclo[3.1.1]heptane-3-yl)piperidin-1-yl)phenyl)amino)pyrimidin-4-yl)amino)-2,3-dimethylphenyl)dimethylphosphine oxide] gave an IC50 of 0.269 nM. This IC50 is about 2.7-fold lower than that of the compound before.

Compound `COc1cc(N2CCC3(CC2)CC(N(C)C)C3)c(F)cc1Nc1ncc(Cl)c(Nc2ccc(C)c(C)c2P(C)(C)=O)n1` [Compound 22] yielded an IC50 of 10 nM.

Take `CCc1cc(Nc2ncc(Cl)c(Nc3ccc(C)c(C)c3P(C)(C)=O)n2)c(OC)cc1N1CC2(CCC(CC#N)CC2)C1` [Compound 29, 2-(2-(4-((5-chloro-4-((2-(dimethylphosphoryl)-3,4-dimethylphenyl)amino)pyrimidin-2-yl)amino)-2-ethyl-5-methoxyphenyl)-2-azaspiro[3.5]nonane-7-yl)acetonitrile]: the IC50 came to 18.1 nM.

`COc1cc(N2CC3(CCN(C4CC4)CC3)C2)c(Cl)cc1Nc1ncc(Cl)c(Nc2cc(C)c(C)cc2P(C)(C)=O)n1` [Compound 41] came in with an IC50 of 0.89 nM.

`CCc1cc(Nc2ncc(Cl)c(Nc3cc(C)c(C)cc3P(C)(C)=O)n2)c(OC)cc1N1CC2(CCC(N(C)C)CC2)C1` [Compound 10, (2-((5-Chloro-2-((4-(7-(dimethylamino)-2-azaspiro[3.5]nonan-2-yl)-5-ethyl-2-methoxypheny 1)amino)pyrimidin-4-yl)amino)-4,5-dimethylphenyl)dimethylphosphine oxide] came in with an IC50 of 13 nM.

`CCc1cc(Nc2ncc(Cl)c(Nc3cc(C)c(C)cc3P(C)(C)=O)n2)c(OC)cc1N1CCC(N2CCOCC2)CC1` [Compound 14, (2-((5-chloro-2-((5-ethyl-2-methoxy-4-(4-morpholinopiperidin-1-yl)phenyl)amino)pyrimidin-4-yl)amino)-4,5-dimethylphenyl)dimethylphosphine oxide] returned an IC50 of 8.3 nM.

As to `COc1cc(N2CCC3(CCN(C)CC3)CC2)ccc1Nc1ncc(Cl)c(Nc2ccc(C)c(C)c2P(C)(C)=O)n1` [Compound 4, (6-((5-Chloro-2-((2-methoxy-4-(9-methyl-3,9-diazaspiro[5.5]undecan-3-yl)phenyl)amino)pyrimidin-4-yl)amino)-2,3-dimethylphenyl)dimethylphosphine oxide], the IC50 is 16 nM.

`COc1cc(N2CC3(CCC(N(C)C)CC3)C2)ccc1Nc1ncc(Cl)c(Nc2ccc(C)c(C)c2P(C)(C)=O)n1` [Compound 2, (6-((5-Chloro-2-((4-(7-(dimethylamino)-2-azaspiro[3.5]nonane-2-yl)-2-methoxyphenyl)amino)pyrimidin-4-yl)amino)-2,3-dimethylphenyl)dimethylphosphine oxide] came in with an IC50 of 89 nM. This IC50 is about 5.6-fold higher than that of the compound before.

Turning to `COc1cc(N2CC3(CCC(CC#N)CC3)C2)c(Cl)cc1Nc1ncc(Cl)c(Nc2cc(C)c(C)cc2P(C)(C)=O)n1` [Compound 43, 2-(2-(2-chloro-4-((5-chloro-4-((2-(dimethylphosphoryl)-4,5-dimethylphenyl)amino)pyrimidin-2-yl)amino)-5-methoxyphenyl)-2-azaspiro[3.5]nonan-7-yl)acetonitrile], half-maximal inhibition (IC50) was put at 25.2 nM.

Compound `CCc1cc(Nc2ncc(Cl)c(Nc3cccc(Cl)c3P(C)(C)=O)n2)c(OC)cc1N1CC2(CCN(CC)CC2)C1` [Compound 47] registered an IC50 of 0.78 nM.

On to `CCc1cc(Nc2ncc(Cl)c(Nc3cc(Cl)c(Cl)cc3P(C)(C)=O)n2)c(OC)cc1N1CC2(CCN(CC(F)F)CC2)C1` [Compound 38], for which inhibition was half-maximal at 0.59 nM (IC50).

On to `CCc1cc(Nc2ncc(Cl)c(Nc3cc(C)c(C)cc3P(C)(C)=O)n2)c(OC)cc1N1CCC(N2CCN(C)CC2)CC1` [Compound 11, (2-((5-chloro-2-((5-ethyl-2-methoxy-4-(4-(4-methylpiperazin-1-yl)piperidin-1-yl)phenyl)amino)pyrimidin-4-yl)amino)-4,5-dimethylphenyl)dimethylphosphine oxide], for which the IC50 came out at 5 nM. This IC50 is about 8.5-fold higher than that of the compound before.

Take `COc1cc(N2CCC(N3CCN(C)CC3)CC2)c(C)cc1Nc1ncc(Cl)c(Nc2ccc(C)c(C)c2P(C)(C)=O)n1` [BD-2, (6-((5-Chloro-2-((2-methoxy-5-methyl-4-(4-(4-methylpiperazin-1-yl)piperidin-1-yl)phenyl)amino)pyrimidin-4-yl)amino)-2,3-dimethylphenyl)dimethylphosphine oxide]: it took 5 nM to reach half-maximal inhibition (IC50).

`COc1cc(N2CC3(CCN(CC(F)F)CC3)C2)c(Cl)cc1Nc1ncc(Cl)c(Nc2cc(C)c(C)cc2P(C)(C)=O)n1` [Compound 42] registered an IC50 of 0.76 nM.

In turn, `CCc1cc(Nc2ncc(Cl)c(Nc3cc(C)cc(C)c3P(C)(C)=O)n2)c(OC)cc1N1CCC2(CC1)CC(N(C)C)C2` [Compound 18, (2-((5-Chloro-2-((4-(2-(dimethylamino)-7-azaspiro[3.5]non-7-yl)-5-ethyl-2-methoxyphenyl)amino)pyrimidin-4-yl)amino)-4,6-dimethylphenyl)dimethylphosphine oxide] displayed an IC50 of 36 nM.

In turn, `CCc1cc(Nc2ncc(Cl)c(Nc3cccc(Cl)c3P(C)(C)=O)n2)c(OC)cc1N1CC2(CCN(C)CC2)C1` [Compound 46] yielded an IC50 of 0.63 nM. This IC50 is about 57-fold lower than that of the compound before.

`CCN1CCC2(CC1)CN(c1cc(OC)c(Nc3ncc(Cl)c(Nc4ccc(C)c(C)c4P(C)(C)=O)n3)cc1Cl)C2` [Compound 35] yielded an IC50 of 0.68 nM.

As for `CCc1cc(Nc2ncc(Cl)c(Nc3ccc(C)c(C)c3P(C)(C)=O)n2)c(OC)cc1N1CCC2(CC1)CN(COC)C2` [Compound 31], 4.19 nM corresponded to half-maximal inhibition (IC50). This IC50 is about 6.2-fold higher than that of the compound before.

For `COc1cc(N2CC3(CCN(C)CC3)C2)c(Cl)cc1Nc1ncc(Cl)c(Nc2ccc(C)c(C)c2P(C)(C)=O)n1` [Compound 34], the IC50 amounted to 0.84 nM.

With `CCc1cc(Nc2ncc(Cl)c(Nc3cc(Cl)c(Cl)cc3P(C)(C)=O)n2)c(OC)cc1N1CC2(CCN(C)CC2)C1` [Compound 36], inhibition was half-maximal at 0.96 nM (IC50).

For `CCc1cc(Nc2ncc(Cl)c(Nc3ccc(C)c(C)c3P(C)(C)=O)n2)c(OC)cc1N1CC2(CCN(CC(F)F)CC2)C1` [Compound 28], the IC50 was determined as 0.99 nM.
